Four molecules from article PMC12203697, “Bioactive constituents from the edible seaweed Halymenia hawaiiana (Rhodophyta)” (Pharmaceutical Biology, 2025) can be followed below.

In one data set the test system is MRSA HBP10. The data set is described as follows: Antibacterial MIC, broth microdilution with resazurin. The class given is cell-based, Staphylococcus aureus. The note with it: MRSA HBP10, Gram-positive. The text has this:
(§1) Methicillin-resistant Staphylococcus aureus (MRSA), methicillin-susceptible S. aureus (MSSA), and Gram-negative clinical isolates of bacteria [Escherichia coli (9637) and Serratia marcescens ATCC 13880] were used for this study. […] MSSA HBP10, MSSA LUU7, MSSA R113, S. aureus ONE9, and MSSA POB2 were isolated in Hawaiʻi (Gerken et al. [2021]). Mueller Hinton Broth (MHB, GTIN:00382902979630, Becton, Dickinson and Company, Franklin Lakes, NJ, USA) and Mueller Hinton Agar (MHA, GTIN:00382902252504, Becton, Dickinson and Company, Franklin Lakes, NJ, USA,) were used for bacterial inoculation. MRSA was a pathogen strain causing hospital-acquired infections in 1982. This strain easily acquires resistance to antibiotics, such as vancomycin. MSSA strains isolated from the Island of Hawaiʻi included: Honolʻii Beach Park (HBP10) carry the genes erm(C), aph(3′)-III, and mecA, which provide resistance to macrolide, aminoglycoside, and beta-lactam antibiotics, respectively; Wailuku River (LUU7) which contains the blaZ gene (beta-lactam resistance) (Gerken et al. [2021]). Richardson’s Beach Park (R113) and Onekahakaha (ONE9) which is known for its virulence factors (hlgA, hlgB, hlgC, lukD, and lukE).
(§2) The minimum inhibitory concentrations (MICs) were determined using a two-fold serial dilution method with MHB following the recommendations of the Clinical and Laboratory Standards Institute (CLSI [2012]; Elshikh et al. [2016]). In brief, serial two-fold dilutions of the samples in DMSO were mixed with MHB in a 96-well microplate. Then, 50 µL of bacteria suspension was added to each well, resulting in a final concentration of 1 × 10^4 colony-forming units/well. The plates were incubated at 35–37 °C for 18–24 hr. After incubation, 10 µL of 0.18% resazurin (Cat. No. R7017, Sigma-Aldrich, USA) was added to each well (Elshikh et al. [2016]). The MIC was assessed within 2–3 hr after the addition of resazurin. All antimicrobial assays were performed in triplicate, using vancomycin (Cat. No. SBR00001, Sigma-Aldrich, USA) and gentamicin (Cat. No. G1397, Sigma-Aldrich, USA) as standard controls.

For the next data set, the system named is MRSA POB2. Described as above. The class given is cell-based, Staphylococcus aureus. The note with it: Staphylococcus aureus; MRSA POB2, Gram-positive; read-out: MIC.
From the text: as §1, §2

The next data set has as its system S. aureus NEWMAN. The description is as above. The class given is cell-based, Staphylococcus aureus. To be noted: S. aureus NEWMAN, Gram-positive.
From the text: as §1, §2

The test system of another data set is RAW 264.7 cells. The data set is described as follows: SRB cellular viability in RAW 264.7 cells. It counts as cell-based, mouse. To be noted: under the NO and ROS/RNS assay conditions. Here is the method: The nitrite concentration in the culture medium was measured to indicate nitric oxide (NO) production as previously described (Min et al. [2009]). The murine macrophage RAW 264.7 cell line was obtained from ATCC, Manassas, VA, USA, and maintained in Dulbecco’s modified Eagle’s medium supplemented with 10% heat-inactivated FBS (Cat. No. A5670801, Gibco BRL Co, Grand Island, NY, USA), penicillin G (100 units/mL) (Cat. No. P7794, Sigma-Aldrich, USA), streptomycin (100 µg/mL) (Cat. No. S9137, Sigma-Aldrich, USA), and L-glutamine (2 mM) (Cat. No. 25030081, Gibco BRL Co, Grand Island, NY, USA). In brief, RAW 264.7 cells were seeded at a density of 4 × 10^4 cells/well in phenol red-free media (Cat. No. 11835030, Gibco, USA) in a 96-well plate, and incubated in a humidified incubator with 5% CO2 at 37 °C for 24 hr. Following this, the cells were treated with increasing concentrations of samples ranging from 10–50 μg/mL for 4 hr, after which the cells were treated with 1 μg/mL LPS for 20 h. L-N-Monomethyl Arginine citrate (L-NMMA) (Cat. No. NC0190932, Cayman Chemical, Michigan, USA), a non-selective inhibitor of NOS, was used as positive control. The concentration of nitric oxide production was assessed using the Griess reagent, which consists of a 1:1 (v/v) mixture of 1% sulfanilamide (Cat No. A13001, Alfa Aesar, Massachusetts, USA) in H3PO4 and N-(1-naphthyl)ethylenediamine dihydrochloride (Cat. No. 102397, MP Biomedicals, USA). Absorbance was recorded with a microplate reader (SynergyMx, BioTeK, Winooski, VT, USA) at 540 nm. A standard curve was created using sodium nitrite (1–100 μM) (Cat. No. 44227, Alfa Aesar, Massachusetts, USA). […]
To measure the formation of intracellular ROS and RNS, we utilized the fluorogenic dye 2′,7′-dichlorodihydrofluorescein diacetate (Cat. No. 4091-99-0, H2DCF-DA, Abcam, Boston, MA, USA). […] The relative fluorescent intensity of the cells was measured using a fluorescence plate reader (Synergy H1, BioTeK, Winooski, VT, USA) with excitation/emission at 485 nm/535 nm. […]

Setting [1] is: Staphylococcus aureus, read-out: MIC.

The structures appear in SMILES notation. Values after ≈ are worked out from the molar mass of the structure shown. Where two headings read alike, the source gives them in different places.

Broadly, the MIC is the lowest concentration that inhibits growth of the organism.

Turning to `Nc1ccn([C@H]2C[C@H](O)[C@@H](CO)O2)c(=O)n1` [Compound 1, deoxycytidine], the MIC with MRSA HBP10 (setting [1]), in the data set on MRSA POB2 and in the data set on S. aureus NEWMAN (setting [1]) was 128 µg/mL (≈ 563 µM) throughout.
As to `CC(C)CCC[C@@H](C)[C@H]1CC[C@H]2[C@@H]3CC=C4C[C@@H](O)CC[C@]4(C)[C@H]3CC[C@]12C` [Compound 9, cholesterol], in the data set on RAW 264.7 cells, the “cytotoxicity in RAW 264.7 cells (in words)” value (shortened to “cytotoxicity”) was “without inducing cytotoxicity”. The MIC was 128 µg/mL (≈ 331 µM) in the data set with MRSA HBP10 (setting [1]), 128 µg/mL (≈ 331 µM) in the data set on MRSA POB2 and 64 µg/mL (≈ 166 µM) with S. aureus NEWMAN (setting [1]).
For the molecule `CC(C)CCC[C@@H](C)[C@H]1CCC2[C@@]34C=C[C@]5(C[C@@H](O)CC[C@]5(C)C3CC[C@@]21C)OO4` (stereo partly shown) [Compound 10, 7-dehydrochoresterol peroxide], the “cytotoxicity” value in the data set on RAW 264.7 cells is recorded as “without inducing cytotoxicity”. The MIC in the data set on MRSA HBP10 amounted to 32 µg/mL (≈ 76.8 µM); in the data set on MRSA HBP10 (setting [1]), 32 µg/mL (≈ 76.8 µM); in the data set with MRSA POB2, 128 µg/mL (≈ 307 µM); against S. aureus NEWMAN, 8 µg/mL (≈ 19.2 µM); in the data set with S. aureus NEWMAN (setting [1]), 8 µg/mL (≈ 19.2 µM).
On to `CC(C)CCC[C@@H](C)[C@H]1CCC2[C@]1(C)CC=C1[C@]23C=C[C@]2(C[C@@H](O)CC[C@]12C)OO3` (stereo partly drawn) [Compound 11, (3β-5α-8α)5,8-epidioxycholesta-6,9(1)-diene-3-ol], for which the “cytotoxicity” value with RAW 264.7 cells is on record as “without inducing cytotoxicity”. The minimum inhibitory concentration (MIC) in the data set on MRSA HBP10 was determined as 64 µg/mL (≈ 154 µM); with MRSA HBP10 (setting [1]) it was 64 µg/mL (≈ 154 µM); in the data set with MRSA POB2 it was 128 µg/mL (≈ 309 µM); in the data set on S. aureus NEWMAN, 8 µg/mL (≈ 19.3 µM); with S. aureus NEWMAN (setting [1]), 8 µg/mL (≈ 19.3 µM).
